According to patent US7868188B2, “5-heteroaryl thiazoles and their use as PI3K inhibitors” (AstraZeneca AB, priority 2004, dated 2011):
Structures can show the parent of a compound that is named as a salt.

What follows are compounds tested against T1, p110α Type Ia human PI3K (Homo sapiens, UniProt P42336) (assay: Test (a) In Vitro PI3K Enzyme Assay (AlphaScreen)). Conditions: read-out: IC50 versus p110α PI3K.
T1 construct: full length DNA of each of the p110α, p110β and p110δ Type Ia human PI3K p110 isoforms; 6-His; made in house; host or cells: baculovirus expression system (Sf9 is named only for PI3Kγ)
T1 sequence (P42336 whole entry, canonical isoform): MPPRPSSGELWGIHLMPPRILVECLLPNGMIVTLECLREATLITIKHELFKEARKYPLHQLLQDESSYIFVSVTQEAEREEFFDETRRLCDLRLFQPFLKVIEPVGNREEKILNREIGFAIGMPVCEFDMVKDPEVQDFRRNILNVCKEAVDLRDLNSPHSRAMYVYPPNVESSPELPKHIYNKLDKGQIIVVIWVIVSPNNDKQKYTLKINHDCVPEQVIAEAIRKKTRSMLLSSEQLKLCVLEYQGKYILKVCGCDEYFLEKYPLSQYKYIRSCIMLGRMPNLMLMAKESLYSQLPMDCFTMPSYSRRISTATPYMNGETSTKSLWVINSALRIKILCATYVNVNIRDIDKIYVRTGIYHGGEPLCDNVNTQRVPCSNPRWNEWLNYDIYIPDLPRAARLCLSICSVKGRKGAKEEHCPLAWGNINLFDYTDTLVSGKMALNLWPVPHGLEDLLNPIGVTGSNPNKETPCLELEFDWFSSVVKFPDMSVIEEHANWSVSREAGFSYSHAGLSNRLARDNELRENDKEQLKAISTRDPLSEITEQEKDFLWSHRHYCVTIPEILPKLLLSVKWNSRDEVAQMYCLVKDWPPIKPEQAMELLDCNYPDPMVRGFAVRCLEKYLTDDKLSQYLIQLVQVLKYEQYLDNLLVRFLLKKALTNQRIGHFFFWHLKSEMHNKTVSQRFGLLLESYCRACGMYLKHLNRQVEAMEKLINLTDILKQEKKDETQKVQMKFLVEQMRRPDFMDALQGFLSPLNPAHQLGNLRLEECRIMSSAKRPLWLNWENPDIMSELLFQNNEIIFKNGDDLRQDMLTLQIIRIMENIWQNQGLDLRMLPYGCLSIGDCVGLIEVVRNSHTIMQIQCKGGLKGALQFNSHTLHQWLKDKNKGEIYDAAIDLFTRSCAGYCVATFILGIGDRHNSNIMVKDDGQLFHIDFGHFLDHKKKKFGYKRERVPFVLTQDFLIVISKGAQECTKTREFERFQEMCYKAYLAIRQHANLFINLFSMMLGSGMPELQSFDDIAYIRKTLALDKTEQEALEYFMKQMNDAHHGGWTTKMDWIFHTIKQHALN
T1 sequence (P27986 whole entry partner, canonical isoform): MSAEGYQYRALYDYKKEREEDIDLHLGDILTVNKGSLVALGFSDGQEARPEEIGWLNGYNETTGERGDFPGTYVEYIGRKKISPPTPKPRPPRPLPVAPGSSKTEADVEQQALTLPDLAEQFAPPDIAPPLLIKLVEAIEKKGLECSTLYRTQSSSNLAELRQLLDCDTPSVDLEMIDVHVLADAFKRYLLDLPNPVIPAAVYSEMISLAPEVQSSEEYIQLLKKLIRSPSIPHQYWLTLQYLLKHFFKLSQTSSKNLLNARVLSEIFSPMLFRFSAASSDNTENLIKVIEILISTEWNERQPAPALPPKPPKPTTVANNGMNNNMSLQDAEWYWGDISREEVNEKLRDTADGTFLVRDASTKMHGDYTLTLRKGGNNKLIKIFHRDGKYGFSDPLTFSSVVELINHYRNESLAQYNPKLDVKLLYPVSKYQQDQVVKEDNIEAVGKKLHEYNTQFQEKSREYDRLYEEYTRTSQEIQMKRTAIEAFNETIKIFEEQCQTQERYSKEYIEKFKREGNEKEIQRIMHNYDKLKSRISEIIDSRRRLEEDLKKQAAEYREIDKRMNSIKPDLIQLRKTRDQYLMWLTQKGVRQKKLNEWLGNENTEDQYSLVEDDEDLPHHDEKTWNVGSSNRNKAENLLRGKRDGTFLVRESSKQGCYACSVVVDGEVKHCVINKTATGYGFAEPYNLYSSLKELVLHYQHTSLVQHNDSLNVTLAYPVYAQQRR
Type: biochemical
Text: The assay used AlphaScreen technology (Gray et al., Analytical Biochemistry, 2003, 313: 234-245) to determine the ability of test compounds to inhibit phosphorylation by recombinant Type I PI3K enzymes of the lipid PI(4,5)P2.
DNA fragments encoding human PI3K catalytic and regulatory subunits were isolated from cDNA libraries using standard molecular biology and PCR cloning techniques. The selected DNA fragments were used to generate baculovirus expression vectors. In particular, full length DNA of each of the p110α, p110β and p110δ Type Ia human PI3K p110 isoforms (EMBL Accession Nos. HSU79143, S67334, Y10055 for p110α, p110β and p110δ respectively) were sub-cloned into a pDEST10 vector (Invitrogen Limited, Fountain Drive, Paisley, UK). The vector is a Gateway-adapted version of Fastbac1 containing a 6-His epitope tag. A truncated form of Type Ib human PI3K p110γ isoform corresponding to amino acid residues 144-1102 (EMBL Accession No. X8336A) and the full length human p85α regulatory subunit (EMBL Accession No. HSP13KIN) were also sub-cloned into pFastBac1 vector containing a 6-His epitope tag. The Type Ia p110 constructs were co-expressed with the p85α regulatory subunit. Following expression in the baculovirus system using standard baculovirus expression techniques, expressed proteins were purified using the His epitope tag using standard purification techniques.
DNA corresponding to amino acids 263 to 380 of human general receptor for phosphoinositides (Grp1) PH domain was isolated from a cDNA library using standard molecular biology and PCR cloning techniques. The resultant DNA fragment was sub-cloned into a pGEX 4T1 E. coli expression vector containing a GST epitope tag (Amersham Pharmacia Biotech, Rainham, Essex, UK) as described by Gray et al., Analytical Biochemistry, 2003, 313: 234-245). The GST-tagged Grp1 PH domain was expressed and purified using standard techniques.
Test compounds were prepared as […] stock solutions in DMSO and diluted into water as required to give a range of final assay concentrations. Aliquots (2 μl) of each compound dilution were placed into a well of a Greiner 384-well low volume (LV) white polystyrene plate (Greiner Bio-one, Brunel Way, Stonehouse, Gloucestershire, UK Catalogue No. 784075). […]
Biotinylated-DiC8-PI(3,4,5)P3 (50 nM; Cell Signals Inc., Catalogue No. 107), recombinant purified GST-Grp1 PH protein (2.5 nM) and AlphaScreen Anti-GST donor and acceptor beads (100 ng; Packard Bioscience Limited, Station Road, Pangbourne, Berkshire, UK, Catalogue No. 6760603M) were added and the assay plates were left for about 5 to 20 hours at room temperature in the dark. The resultant signals arising from laser light excitation at 680 nm were read using a Packard AlphaQuest instrument. […]

| IC50 | SMILES |
| --- | --- |
| ~200 nM | CC(=O)Nc1nc(C)c(-c2cnc(Cl)c(NCc3ccc(F)cc3)c2)s1 [Compound No. 3 within Example 79, N-{5-[6-Chloro-5-(4-fluorobenzylamino)pyridin-3-yl]-4-methyl-1,3-thiazol-2-yl}acetamide] |
| ~10 nM | CC(=O)Nc1nc(C)c(-c2cnc(Cl)c(NS(C)(=O)=O)c2)s1 [Example 28, N-[5-(6-Chloro-5-methylsulfonylaminopyridin-3-yl)-4-methyl-1,3-thiazol-2-yl]acetamide trifluoroacetate] |
| ~30 nM | CC(=O)Nc1nc(C)c(-c2cnc(Cl)c(S(=O)(=O)Nc3ccccc3)c2)s1 [Compound No. 4 within Example 73, N-{5-[6-Chloro-5-(N-phenylsulfamoyl)pyridin-3-yl]-4-methyl-1,3-thiazol-2-yl]acetamide] |
